Test results as given in patent publication US10544136B2, “Modulators of sphingosine phosphate receptors” (The Scripps Research Institute, priority 2008, dated 2020).

biological target: S1P1 (Homo sapiens (Human), UniProt P21453); test: S1P1 agonist assay (Ec50 S1P1Ag); format: cell-based; conditions: not given
Excerpt: The exact dosage will depend upon the activity of the compound, mode of administration, on the therapy desired, form in which administered, the subject to be treated and the body weight of the subject to be treated, and the preference and experience of the physician or veterinarian in charge. S1P1 agonist bioactivity of the compounds of the invention can be determined by use of an in vitro assay system which measures the activation of S1P1, which can be expressed as EC50 values, as are well known in the art inhibitors of the invention can be determined by the method described in the Examples.

Chain of S1P1 (P21453 whole entry): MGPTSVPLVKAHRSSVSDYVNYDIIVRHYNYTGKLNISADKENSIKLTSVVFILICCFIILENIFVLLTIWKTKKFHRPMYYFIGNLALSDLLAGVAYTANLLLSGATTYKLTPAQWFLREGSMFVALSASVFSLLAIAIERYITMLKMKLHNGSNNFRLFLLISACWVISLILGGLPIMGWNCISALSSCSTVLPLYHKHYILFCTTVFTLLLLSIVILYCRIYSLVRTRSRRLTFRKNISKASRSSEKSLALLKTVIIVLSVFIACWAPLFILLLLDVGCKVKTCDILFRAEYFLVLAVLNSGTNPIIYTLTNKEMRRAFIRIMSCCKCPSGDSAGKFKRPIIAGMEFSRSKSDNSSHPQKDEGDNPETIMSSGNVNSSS

| EC50 [µM] | Molecule |
| --- | --- |
| < 0.0005 | 4-(5-(4-isopropoxy-3-(trifluoromethyl)phenyl)-1,2,4-oxadiazol-3-yl)-2,3-dihydro-1H-inden-1-ol [Compound 261] |
| 6.5 | COc1cc(OC)c(-c2nc(-c3ccncc3)no2)cc1OC [Compound 11] |
| 0.397 | Nc1cc(-c2nc(-c3ccc(S(N)(=O)=O)cc3)no2)ccn1 [Compound 18] |
| 1.03 | NS(=O)(=O)c1ccc(-c2noc(-c3cc(Cl)nc(Cl)c3)n2)cc1 [Compound 22] |
| 1.8 | COc1cc(-c2noc(-c3cccnc3)n2)ccc1C [Compound 24] |
| 0.477 | COc1cc(-c2noc(-c3cc(C)nc(Cl)c3)n2)ccc1C [Compound 28] |
| 0.576 | COc1cc(-c2noc(-c3ccnc(Cl)c3)n2)ccc1C [Compound 29] |
| 1.39 | COc1cc(-c2noc(-c3cc(CC(C)C)no3)n2)ccc1C [Compound 30] |
| 0.116 | CCOc1ccc(-c2nc(-c3ccccn3)no2)cc1OCC [Compound 33] |
| 0.938 | CCOc1cccc(-c2nc(-c3ccncc3)no2)c1 [Compound 38] |
| 0.418 | COc1cc(-c2nc(-c3ccncc3)no2)ccc1C [Compound 39] |
| 0.621 | COc1cc(-c2nc(-c3ccc(C)c(OC)c3)no2)ccn1 [Compound 40] |
| 7.7 | COc1cc(-c2noc(-c3ccnnc3)n2)ccc1C [Compound 41] |
| 0.909 | COc1cc(-c2noc(Cc3ccncc3)n2)ccc1C [Compound 42] |
| 0.731 | COc1cc(-c2noc(-c3ccncc3)n2)ccc1C [Compound 44] |
| 1.48 | COc1cc(-c2noc(-c3cc(Cl)nc(Cl)c3)n2)ccc1C [Compound 45] |
| 0.544 | COc1cc(-c2noc(-c3ccc(C#N)c(C)c3)n2)ccc1C [Compound 46] |
| 0.295 | CCn1nc(C)cc1-c1nc(-c2ccc(C)c(OC)c2)no1 [Compound 48] |
| 0.487 | Cc1ccc(-c2nc(-c3ccncc3)no2)cc1C(F)(F)F [Compound 49] |
| 0.847 | CCCCc1ccc(-c2nc(-c3ccncc3)no2)cc1 [Compound 51] |
| 0.0834 | c1cc(-c2noc(-c3ccc(C4CCCCC4)cc3)n2)ccn1 [Compound 56] |
| 0.29 | CCn1nc(C)cc1-c1nc(-c2ccncc2)no1 [Compound 57] |
| 0.129 | FC(F)(F)c1cc(-c2nc(-c3cccnc3)no2)ccc1-c1ccccc1 [Compound 63] |
| 0.228 | CCOc1cccc(-c2nc(-c3ccncc3C)no2)c1 [Compound 64] |
| 0.319 | CCOc1cccc(-c2nc(-c3ccnc(N)c3)no2)c1 [Compound 65] |

| EC50 [µM] | Molecule |
| --- | --- |
| 1.99 | CCOc1cccc(-c2nc(-c3cncc(C)c3)no2)c1 [Compound 66] |
| 0.0377 | Cc1cnccc1-c1noc(-c2ccc(C)c(C(F)(F)F)c2)n1 [Compound 68] |
| 0.197 | Cc1ccc(-c2nc(-c3ccnc(N)c3)no2)cc1C(F)(F)F [Compound 69] |
| 0.601 | COc1cc(-c2nc(-c3cncc(C)c3)no2)ccc1C [Compound 74] |
| 0.274 | COc1cc(-c2nc(-c3cccnc3)no2)ccc1C [Compound 75] |
| 0.45 | CCOc1ccc(-c2nc(-c3cccc(CN4CCCC4)c3)no2)cc1OCC [Compound 77] |
| 0.0452 | CCOc1ccc(-c2nc(-c3cccc(CN(C)C)c3)no2)cc1OCC [Compound 78] |
| 0.0865 | CCOc1ccc(-c2nc(-c3ccc(CN4CCCC4)cc3)no2)cc1OCC [Compound 80] |
| 0.123 | CCOc1ccc(-c2nc(-c3ccc(CN(C)C)cc3)no2)cc1OCC [Compound 81] |
| 0.048 | FC(F)(F)c1cc(-c2nc(-c3ccc(CN4CCCC4)cc3)no2)ccc1-c1ccccc1 [Compound 82] |
| 0.224 | CCOc1ccc(-c2nnc(-c3ccncc3)o2)cc1OCC [Compound 89] |
| 2.8 | CCOc1ccc(-c2nnc(-c3ccncc3)[nH]2)cc1OCC [Compound 93] |
| 0.0863 | CCOc1ccc(-c2nc(-c3ccc(N4CCN(C)CC4)cc3C)no2)cc1OCC [Compound 100] |
| 8.4 | c1ccc(Cc2nc(-c3ccncc3)no2)cc1 [Compound 105] |
| 1.5 | CCC(c1ccccc1)c1nc(-c2ccncc2)no1 (centres unmarked) [Compound 109] |
| 0.639 | CCOc1ccc(-c2nc(-c3cccc(Br)c3C)no2)cc1OCC [Compound 121] |
| 0.005 | CCOc1ccc(-c2nc(-c3ccc(C#N)cc3C)no2)cc1OCC [Compound 122] |
| 0.003 | CCOc1ccc(-c2nc(-c3ccc4cc[nH]c4c3)no2)cc1OCC [Compound 124] |
| 0.171 | CCOc1ccc(-c2nc(-c3ccc(CN4CCCC4)cc3C)no2)cc1OCC [Compound 125] |
| 0.0191 | CCOc1ccc(-c2nc(-c3ccc(CN(C)C)cc3C)no2)cc1OCC [Compound 128] |
| 0.0042 | CCOc1ccc(-c2nc(-c3ccc4c(c3)NCC4)no2)cc1OCC [Compound 150] |
| 0.0017 | CCOc1ccc(-c2nc(-c3ccc4c(c3)NC(=O)C4)no2)cc1OCC [Compound 155] |
| 0.0294 | CCOc1ccc(-c2nc(-c3cccc(N)c3C)no2)cc1OCC [Compound 165] |
| 0.0125 | CCOc1ccc(-c2nc(-c3cccc(C)c3C)no2)cc1OCC [Compound 166] |
| 0.733 | CCOc1ccc(-c2nc(-c3ccc(C4=NCCN4)cc3)no2)cc1OCC [Compound 181] |

| EC50 [µM] | Molecule |
| --- | --- |
| 0.245 | CCOc1ccc(-c2nc(-c3ccc(Br)c(C)c3)no2)cc1OCC [Compound 185] |
| 0.0538 | CCOc1ccc(-c2nc(-c3ccc(CCN4CCCC4)cc3)no2)cc1OCC [Compound 191] |
| 0.104 | CCOc1ccc(-c2nc(-c3ccc(CO)c(C)c3)no2)cc1OCC [Compound 200] |
| 0.0358 | CCOc1ccc(-c2nc(-c3ccc(CN4CCCC4)c(C)c3)no2)cc1OCC [Compound 202] |
| 0.0322 | CCOc1ccc(-c2nc(-c3cccc4[nH]cc(CNCCN(CC)CC)c34)no2)cc1OCC [Compound 204] |
| > 5 | CCOc1ccc(-c2nc(-c3ccc(OC(F)(F)F)cc3)no2)cc1OCC [Compound 206] |
| 0.154 | CCOc1ccc(-c2nc(-c3cc4ccccc4cn3)no2)cc1OCC [Compound 208] |
| 0.164 | CCOc1ccc(-c2nc(-c3ccc(CN4C[C@H](O)C[C@H]4C(=O)N(C)C)cc3C)no2)cc1OCC [Compound 210] |
| 0.341 | CCOc1ccc(-c2nc(-c3ccc4ccccc4c3)no2)cc1OCC [Compound 212] |
| 0.636 | CCOc1ccc(-c2nc(-c3cccc4[nH]cc(CNC(C)(C)CO)c34)no2)cc1OCC [Compound 213] |
| 0.0001 | CCOc1ccc(-c2nc(-c3cccc4c3CCC4O)no2)cc1OCC (centres unmarked) [Compound 215, 4-(5-(3,4-diethoxyphenyl)-1,2,4-oxadiazol-3-yl)-2,3-dihydro-1H-inden-1-ol] |
| 0.0915 | CCOc1ccc(-c2nc(-c3cccc4c3CCC4NC(C)(C)CO)no2)cc1OCC (centres unmarked) [Compound 216] |
| 0.132 | CCOc1ccc(-c2nc(-c3ccnc(CNC(C)(C)CO)c3)no2)cc1OCC [Compound 218] |
| 0.013 | CCOc1ccc(-c2nc(-c3nccc4ccccc34)no2)cc1OCC [Compound 219] |
| 0.028 | CCOc1ccc(-c2nc(-c3cncc(C(=O)OC)c3)no2)cc1OCC [Compound 220] |
| 1.4 | CCOc1ccc(-c2nc(-c3cccc4[nH]cc(CN(C)CCO)c34)no2)cc1OCC [Compound 221] |
| 0.284 | CCOc1ccc(-c2nc(-c3cccc4[nH]cc(CNCCN(C)C)c34)no2)cc1OCC [Compound 222] |
| 0.485 | CCOc1ccc(-c2nc(-c3ccc4[nH]cc(CNCCN(CC)CC)c4c3)no2)cc1OCC [Compound 224] |
| 0.0245 | CCOc1ccc(-c2nc(-c3cncc(CO)c3)no2)cc1OCC [Compound 225] |
| 0.0027 | CCOc1ccc(-c2nc(-c3ccnc(CNCCN(CC)CC)c3)no2)cc1OCC [Compound 226] |
| 0.0213 | CCOc1ccc(-c2nc(-c3cccc4c3CCC4=O)no2)cc1OCC [Compound 227] |
| 0.3 | CCOc1ccc(-c2nc(-c3cccc4[nH]cc(CN5CC[C@H](O)C5)c34)no2)cc1OCC [Compound 230] |
| 0.12 | CCOc1ccc(-c2nc(-c3cccc4[nH]cc(CN5CC[C@@H](O)C5)c34)no2)cc1OCC [Compound 231] |
| 0.0939 | CCOc1ccc(-c2nc(-c3cccc4c3CCN4CCN(CC)CC)no2)cc1OCC [Compound 232] |
| 0.581 | CCOc1ccc(-c2nc(-c3cccc4[nH]cc(CNC)c34)no2)cc1OCC [Compound 233] |

same assay, conditions: unit μM/uM

| EC50 [µM] | Molecule |
| --- | --- |
| 466 | COc1cc(-c2nc(-c3ccc(C(F)(F)F)cc3)no2)ccn1 [Compound 1] |
| 6.5 | FC(F)(F)c1ccc(-c2noc(-c3cccnc3)n2)cc1 [Compound 2] |
| 5.9 | [O-][n+]1ccc(-c2nc(-c3ccc(C(F)(F)F)cc3)no2)cc1 [Compound 3] |
| 7.8 | FC(F)(F)c1ccc(-c2noc(-c3ccnnc3)n2)cc1 [Compound 4] |
| 4.1 | Fc1cc(-c2nc(-c3ccc(C(F)(F)F)cc3)no2)ccn1 [Compound 6] |
| 73 | COc1ccc(-c2nc(-c3ccccc3)no2)cc1 [Compound 8] |
| 68.4 | CC(C)COc1ccc(-c2nc(-c3ccncc3)no2)cc1 [Compound 9] |
| 12.3 | CC(C)(C)c1cc(-c2nc(-c3ccc(S(N)(=O)=O)cc3)no2)cc(C(C)(C)C)c1 [Compound 14] |
| 12 | COc1cc(-c2nc(-c3ccc(S(N)(=O)=O)cc3)no2)ccn1 [Compound 19] |
| 31.8 | COc1cc(-c2noc(-c3cc4ccccc4s3)n2)ccc1C [Compound 47] |
| 95.5 | CCOc1cccc(-c2nc(-c3cccnc3)no2)c1 [Compound 67] |
| 7.08 | Cc1cc(-c2noc(-c3ccc(C)c(C(F)(F)F)c3)n2)ccn1 [Compound 70] |
| 10 | CCOc1ccc(-c2nc(-c3cccc(OC(F)(F)F)c3)no2)cc1OCC [Compound 205] |
| 10 | CCOc1ccc(-c2nc(-c3ccc4[nH]cc(CN5CCCC5)c4c3)no2)cc1OCC [Compound 223] |
